Reference: ChEMBL document CHEMBL1201862, “PubChem BioAssay data set” (2004)
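Test compounds were applied to cells in 96-well plates for 48 hours at 5 doses. Here, GI50 denotes the concentration required for 50% inhibition of growth.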 The source made the active and inactive calls. No stated cut-off is given here; in the data, active = GI50 up to about 1.1 µM and inactive = higher.

Experiments:
Assay in all cases: inhibition of tumour cell growth, NCI panel, 48 h
[1] = system: ACHN
[2] = system: CCRF-CEM
[3] = system: HOP-62
[4] = system: HT-29
[5] = system: IGROV-1
[6] = system: M14
[7] = system: MDA-MB-231
[8] = system: MDA-N
[9] = system: Malme-3M
[10] = system: NCI/ADR-RES
[11] = system: OVCAR-3
[12] = system: OVCAR-4
[13] = system: OVCAR-5
[14] = system: OVCAR-8
[15] = system: RXF 393
[16] = system: SF-268
[17] = system: SW-620
[18] = system: U-251
[19] = system: HOP-92
[20] = system: NCI-H226

Row | SMILES | GI50 [1] | GI50 [2] | GI50 [3] | GI50 [4] | GI50 [5] | GI50 [6] | GI50 [7] | GI50 [8] | GI50 [9] | GI50 [10] | GI50 [11] | GI50 [12] | GI50 [13] | GI50 [14] | GI50 [15] | GI50 [16] | GI50 [17] | GI50 [18] | GI50 [19] | GI50 [20]
1 | CC(=O)O.CN1CCN(CN2C(=O)C3C4C=CC(C3C2=O)C2C3C(=O)N(CN5CCN(C)CC5)C(=O)C3C42)CC1 (configuration not stated) | 27.6 µM (inactive) | 18.5 µM (inactive) | > 50 µM (inactive) | 25.3 µM (inactive) | 35.5 µM (inactive) | 18.9 µM (inactive) | 24.4 µM (inactive) | 17.8 µM (inactive) | 18.3 µM (inactive) | 24.2 µM (inactive) | 24.3 µM (inactive) | 21.4 µM (inactive) | 23.9 µM (inactive) | 27.8 µM (inactive) | 17.7 µM (inactive) | 27.5 µM (inactive) | 22.2 µM (inactive) | 19 µM (inactive) |  | 
2 | O=C(c1ccccc1)c1ccc(N2C(=O)/C(=C/Cc3ccco3)N=C2c2ccccc2)c(N2C(=O)/C(=C/Cc3ccco3)N=C2c2ccccc2)c1 | 33 µM (inactive) | 11.1 µM (inactive) | 40 µM (inactive) | 43.4 µM (inactive) | 39.2 µM (inactive) | 39.9 µM (inactive) | 37.9 µM (inactive) | 60.3 µM (inactive) |  | 33.8 µM (inactive) | 21.6 µM (inactive) | 39.9 µM (inactive) | > 100 µM (inactive) | 29.3 µM (inactive) |  | 32.1 µM (inactive) | 39.8 µM (inactive) | 18.8 µM (inactive) | 97.1 µM (inactive) | 
3 | CC(C)C1=C(O)C(=O)C2=C(C1=O)C(O)CC1C(C)(C)CCCC21C (configuration not stated) | 3.85 µM (inactive) | 6.71 µM (inactive) | 7.35 µM (inactive) | 22.1 µM (inactive) | 15.8 µM (inactive) | 3.92 µM (inactive) | 2.84 µM (inactive) | 2 µM (inactive) | 3.87 µM (inactive) |  | 11.4 µM (inactive) | 14.6 µM (inactive) | 20.4 µM (inactive) | 5.36 µM (inactive) | 2.14 µM (inactive) | 6 µM (inactive) | 3.52 µM (inactive) | 4.8 µM (inactive) | 3.61 µM (inactive) | 
4 | CC1CCN(c2nnc(Cl)cc2C(=O)c2ccccc2)CC1 | 49.9 µM (inactive) | 13.5 µM (inactive) | 28.4 µM (inactive) | 17.7 µM (inactive) | 35.3 µM (inactive) | 27 µM (inactive) | 27.5 µM (inactive) | 21.7 µM (inactive) |  | 36.6 µM (inactive) | 22.4 µM (inactive) | 29.2 µM (inactive) | 77.4 µM (inactive) | 58.7 µM (inactive) | 16.9 µM (inactive) | 1.67 µM (inactive) | 22.1 µM (inactive) | 31.1 µM (inactive) | 16 µM (inactive) | 
5 | Clc1ccccc1C(SCc1ccccc1)SCc1ccccc1 | > 100 µM (inactive) | > 100 µM (inactive) | > 100 µM (inactive) | > 100 µM (inactive) | > 100 µM (inactive) | > 100 µM (inactive) |  | > 100 µM (inactive) | > 100 µM (inactive) | > 100 µM (inactive) | > 100 µM (inactive) | > 100 µM (inactive) | > 100 µM (inactive) | > 100 µM (inactive) | > 100 µM (inactive) | > 100 µM (inactive) | > 100 µM (inactive) | > 100 µM (inactive) | > 100 µM (inactive) | > 100 µM (inactive)
6 | C=CC[C@H]1[C@@H](O[Si](C)(C)C(C)(C)C)[C@H](n2ccc(=O)[nH]c2=O)O[C@@H]1CO[Si](C)(C)C(C)(C)C | 2.33 µM (inactive) | 2.52 µM (inactive) | 1.76 µM (inactive) | 1.59 µM (inactive) | 2.32 µM (inactive) | 1.57 µM (inactive) | 1.96 µM (inactive) |  | 2.89 µM (inactive) | 2.15 µM (inactive) | 1.52 µM (inactive) | 1.82 µM (inactive) | 1.5 µM (inactive) | 1.87 µM (inactive) | 1.56 µM (inactive) | 2.99 µM (inactive) | 1.82 µM (inactive) | 2.09 µM (inactive) | 1.21 µM (inactive) | 4.11 µM (inactive)
7 | OC1CSCCCSCCSCCCSC1 | > 100 µM (inactive) |  | > 100 µM (inactive) | > 100 µM (inactive) | > 100 µM (inactive) | > 100 µM (inactive) | > 100 µM (inactive) | > 100 µM (inactive) |  |  | > 100 µM (inactive) | > 100 µM (inactive) | > 100 µM (inactive) | > 100 µM (inactive) | > 100 µM (inactive) | > 100 µM (inactive) | > 100 µM (inactive) | > 100 µM (inactive) | > 100 µM (inactive) | > 100 µM (inactive)
8 | O=C(CC(=O)n1nc(-c2ccccc2)c(/N=N/c2ccc(Cl)cc2)c1-c1ccccc1)Nc1cccc(Cl)c1 | 63.8 µM (inactive) | 38.9 µM (inactive) | 38 µM (inactive) | 75.7 µM (inactive) | 5.25 µM (inactive) | 70.1 µM (inactive) | 54.7 µM (inactive) | > 100 µM (inactive) | 42.9 µM (inactive) |  |  |  | 96.4 µM (inactive) | 81.1 µM (inactive) | > 100 µM (inactive) |  | > 100 µM (inactive) | 40.9 µM (inactive) | > 100 µM (inactive) | 28.3 µM (inactive)
9 | CC1=C2C(=O)c3ccccc3C(=O)[C@H]2C[C@@H](N2CCCC2=O)O1 | 90.6 µM (inactive) | 32.4 µM (inactive) | 39.6 µM (inactive) | 41.6 µM (inactive) | 80.9 µM (inactive) | 14.7 µM (inactive) | 39.6 µM (inactive) | 16.4 µM (inactive) | 17.4 µM (inactive) | 28.4 µM (inactive) | 26.5 µM (inactive) | 20.2 µM (inactive) | 19.4 µM (inactive) | 50.9 µM (inactive) | 23.7 µM (inactive) | 48.1 µM (inactive) | 23.8 µM (inactive) | 28 µM (inactive) | 21.9 µM (inactive) | 
10 | O=C(c1ccc2ccccc2c1)C1(I)S(=O)(=O)OCCOS1(=O)=O | > 100 µM (inactive) | > 100 µM (inactive) | > 100 µM (inactive) | > 100 µM (inactive) |  | > 100 µM (inactive) | > 100 µM (inactive) | > 100 µM (inactive) | > 100 µM (inactive) | > 100 µM (inactive) | > 100 µM (inactive) | > 100 µM (inactive) | > 100 µM (inactive) | > 100 µM (inactive) |  |  |  | > 100 µM (inactive) |  | 
11 | Nc1nc(N)c2c(n1)CCC(S(=O)(=O)c1ccc3ccccc3c1)C2 (configuration not stated) | 3.85 µM (inactive) | 5.2 µM (inactive) | 9.51 µM (inactive) | 1.26 µM (inactive) |  | 12.6 µM (inactive) | 42.4 µM (inactive) | 0.766 µM (active) | 2.24 µM (inactive) | 43.8 µM (inactive) | 10.9 µM (inactive) |  | 87.7 µM (inactive) | 5.26 µM (inactive) |  | 11 µM (inactive) | 59.3 µM (inactive) | 2.45 µM (inactive) | 9.1 µM (inactive) | 39.3 µM (inactive)
12 | C=C[C@@]1(C)CC(=O)[C@]2(O)[C@@]3(C)[C@@H](OC(C)=O)CCC(C)(C)[C@@H]3[C@H](O)[C@H](OC(C)=O)[C@@]2(C)O1 | > 100 µM (inactive) |  | > 100 µM (inactive) | > 100 µM (inactive) | > 100 µM (inactive) | > 100 µM (inactive) | > 100 µM (inactive) | > 100 µM (inactive) |  | > 100 µM (inactive) | > 100 µM (inactive) | > 100 µM (inactive) | > 100 µM (inactive) | > 100 µM (inactive) |  |  | > 100 µM (inactive) | > 100 µM (inactive) | > 100 µM (inactive) | > 100 µM (inactive)
13 | COc1cc(C(N)=O)cc(NC(=O)/C=C/c2ccccc2)c1OC | > 100 µM (inactive) | > 100 µM (inactive) | > 100 µM (inactive) | > 100 µM (inactive) | > 100 µM (inactive) | > 100 µM (inactive) | > 100 µM (inactive) | > 100 µM (inactive) | > 100 µM (inactive) | > 100 µM (inactive) | 97.5 µM (inactive) | > 100 µM (inactive) | > 100 µM (inactive) | 61.8 µM (inactive) | > 100 µM (inactive) | 64.3 µM (inactive) | > 100 µM (inactive) | > 100 µM (inactive) | 35.7 µM (inactive) | 
14 | O=c1cc2oc3ccc4ccccc4c3cc-2c(=O)[nH]1 | 17 µM (inactive) | 1.07 µM (active) | 10.8 µM (inactive) | 16 µM (inactive) | 14.2 µM (inactive) | 18.2 µM (inactive) |  | 11.3 µM (inactive) | 16.2 µM (inactive) | 17.5 µM (inactive) | 11.4 µM (inactive) | 22.3 µM (inactive) | 17.6 µM (inactive) | 1.56 µM (inactive) |  | 12.7 µM (inactive) | 1.87 µM (inactive) | 10.2 µM (inactive) |  | 
15 | O=c1c(-c2ccc3c(c2)OCO3)coc2c3c(ccc12)OCO3 | 18.5 µM (inactive) | > 100 µM (inactive) | 20.1 µM (inactive) |  | 20.8 µM (inactive) | 30 µM (inactive) | 21.5 µM (inactive) | 93.5 µM (inactive) |  |  | 28.5 µM (inactive) | 24.8 µM (inactive) | 56.6 µM (inactive) |  |  | 19.1 µM (inactive) | 39.7 µM (inactive) | 37.6 µM (inactive) | 18 µM (inactive) | 
